Results from ChEMBL document CHEMBL5230155, “Recent contributions of quinolines to antimalarial and anticancer drug discovery research” (Eur J Med Chem, 2021).
≈ marks a conversion by molar mass, not a printed value.

Key:
Plasmodium falciparum [1] = experiment: Antimalarial activity against CQ-resistant Plasmodium falciparum W2; format: functional, organism-based
Plasmodium falciparum [2] = experiment: Antimalarial activity against CQ-sensitive Plasmodium falciparum D6; format: functional, organism-based
[3] = molecular target: Hepatocyte growth factor receptor (Homo sapiens, UniProt P08581); experiment: Inhibition of c-Met (unknown origin)
MCF7 = experiment: Antiproliferative activity against human MCF7 cells; format: functional, cell-based; settings: Homo sapiens, MCF7
Plasmodium falciparum [4] = experiment: microbe, parasite or virus in culture
Description: Antimalarial activity against Plasmodium falciparum

Plasmodium falciparum [5] = experiment: microbe, parasite or virus in culture; settings: NF54
Description: Antimalarial activity against CQ-sensitive Plasmodium falciparum NF54

Plasmodium falciparum [6] = experiment: Antimalarial activity against CQ-sensitive Plasmodium falciparum 3D7; format: functional, organism-based
[7] = molecular target: Lysine-specific demethylase 6B (Homo sapiens) (UniProt O15054); experiment: Inhibition of JMJD3 (unknown origin) at 25 uM relative to control
Plasmodium falciparum [8] = experiment: Antimalarial activity against CQ-resistant Plasmodium falciparum K1; format: functional, organism-based
[9] = Binding affinity to human nRNP
[10] = molecular target: Cathepsin B (Homo sapiens) (UniProt P07858); experiment: Inhibition of human cathepsin B exopeptidase activity at 50 uM relative to control
HepG2 = experiment: Cytotoxicity against human HepG2 cells; format: functional, cell-based; settings: Homo sapiens, HepG2
HCT-116 = experiment: Cytotoxicity against human HCT-116 cells; format: functional, cell-based
PC-3 = experiment: Antiproliferative activity against human PC-3 cells; format: functional, cell-based

Chain of Hepatocyte growth factor receptor (P08581 whole entry): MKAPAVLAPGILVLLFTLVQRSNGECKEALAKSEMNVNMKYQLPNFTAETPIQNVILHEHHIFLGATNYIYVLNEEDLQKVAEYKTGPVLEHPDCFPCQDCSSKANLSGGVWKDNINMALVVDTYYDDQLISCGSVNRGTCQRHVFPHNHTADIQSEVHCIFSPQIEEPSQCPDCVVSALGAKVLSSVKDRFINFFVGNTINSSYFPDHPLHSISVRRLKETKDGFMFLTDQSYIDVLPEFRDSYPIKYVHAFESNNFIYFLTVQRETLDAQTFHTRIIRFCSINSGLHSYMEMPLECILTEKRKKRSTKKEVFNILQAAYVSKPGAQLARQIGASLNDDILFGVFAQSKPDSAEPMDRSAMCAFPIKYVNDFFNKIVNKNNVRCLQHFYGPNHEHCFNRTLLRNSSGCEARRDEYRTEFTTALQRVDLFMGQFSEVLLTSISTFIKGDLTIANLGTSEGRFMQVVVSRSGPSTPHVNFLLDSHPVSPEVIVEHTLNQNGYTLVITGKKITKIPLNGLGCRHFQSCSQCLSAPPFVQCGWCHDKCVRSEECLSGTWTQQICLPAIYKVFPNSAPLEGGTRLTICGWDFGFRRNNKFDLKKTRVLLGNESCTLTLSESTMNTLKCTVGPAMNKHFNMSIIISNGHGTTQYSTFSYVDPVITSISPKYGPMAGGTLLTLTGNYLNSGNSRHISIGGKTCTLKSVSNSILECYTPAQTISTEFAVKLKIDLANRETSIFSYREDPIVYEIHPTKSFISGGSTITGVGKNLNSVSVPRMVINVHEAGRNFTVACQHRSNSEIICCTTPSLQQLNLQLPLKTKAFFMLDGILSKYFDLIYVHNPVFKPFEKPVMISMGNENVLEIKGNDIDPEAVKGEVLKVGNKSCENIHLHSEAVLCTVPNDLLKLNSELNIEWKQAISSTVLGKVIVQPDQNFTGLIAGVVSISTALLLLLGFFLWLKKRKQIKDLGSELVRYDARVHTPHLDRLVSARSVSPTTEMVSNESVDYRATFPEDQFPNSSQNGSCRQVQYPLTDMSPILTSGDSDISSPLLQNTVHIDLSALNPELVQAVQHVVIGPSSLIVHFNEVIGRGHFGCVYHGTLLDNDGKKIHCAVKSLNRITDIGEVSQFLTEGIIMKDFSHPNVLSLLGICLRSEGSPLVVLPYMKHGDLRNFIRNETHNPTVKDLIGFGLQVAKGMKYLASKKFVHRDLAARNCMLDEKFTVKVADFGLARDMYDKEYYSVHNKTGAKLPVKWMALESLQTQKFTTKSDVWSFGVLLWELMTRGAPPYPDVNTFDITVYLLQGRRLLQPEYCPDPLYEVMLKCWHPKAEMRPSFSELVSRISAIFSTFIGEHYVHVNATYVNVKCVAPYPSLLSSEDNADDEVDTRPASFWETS
Chain of Lysine-specific demethylase 6B (Homo sapiens) (O15054 whole entry): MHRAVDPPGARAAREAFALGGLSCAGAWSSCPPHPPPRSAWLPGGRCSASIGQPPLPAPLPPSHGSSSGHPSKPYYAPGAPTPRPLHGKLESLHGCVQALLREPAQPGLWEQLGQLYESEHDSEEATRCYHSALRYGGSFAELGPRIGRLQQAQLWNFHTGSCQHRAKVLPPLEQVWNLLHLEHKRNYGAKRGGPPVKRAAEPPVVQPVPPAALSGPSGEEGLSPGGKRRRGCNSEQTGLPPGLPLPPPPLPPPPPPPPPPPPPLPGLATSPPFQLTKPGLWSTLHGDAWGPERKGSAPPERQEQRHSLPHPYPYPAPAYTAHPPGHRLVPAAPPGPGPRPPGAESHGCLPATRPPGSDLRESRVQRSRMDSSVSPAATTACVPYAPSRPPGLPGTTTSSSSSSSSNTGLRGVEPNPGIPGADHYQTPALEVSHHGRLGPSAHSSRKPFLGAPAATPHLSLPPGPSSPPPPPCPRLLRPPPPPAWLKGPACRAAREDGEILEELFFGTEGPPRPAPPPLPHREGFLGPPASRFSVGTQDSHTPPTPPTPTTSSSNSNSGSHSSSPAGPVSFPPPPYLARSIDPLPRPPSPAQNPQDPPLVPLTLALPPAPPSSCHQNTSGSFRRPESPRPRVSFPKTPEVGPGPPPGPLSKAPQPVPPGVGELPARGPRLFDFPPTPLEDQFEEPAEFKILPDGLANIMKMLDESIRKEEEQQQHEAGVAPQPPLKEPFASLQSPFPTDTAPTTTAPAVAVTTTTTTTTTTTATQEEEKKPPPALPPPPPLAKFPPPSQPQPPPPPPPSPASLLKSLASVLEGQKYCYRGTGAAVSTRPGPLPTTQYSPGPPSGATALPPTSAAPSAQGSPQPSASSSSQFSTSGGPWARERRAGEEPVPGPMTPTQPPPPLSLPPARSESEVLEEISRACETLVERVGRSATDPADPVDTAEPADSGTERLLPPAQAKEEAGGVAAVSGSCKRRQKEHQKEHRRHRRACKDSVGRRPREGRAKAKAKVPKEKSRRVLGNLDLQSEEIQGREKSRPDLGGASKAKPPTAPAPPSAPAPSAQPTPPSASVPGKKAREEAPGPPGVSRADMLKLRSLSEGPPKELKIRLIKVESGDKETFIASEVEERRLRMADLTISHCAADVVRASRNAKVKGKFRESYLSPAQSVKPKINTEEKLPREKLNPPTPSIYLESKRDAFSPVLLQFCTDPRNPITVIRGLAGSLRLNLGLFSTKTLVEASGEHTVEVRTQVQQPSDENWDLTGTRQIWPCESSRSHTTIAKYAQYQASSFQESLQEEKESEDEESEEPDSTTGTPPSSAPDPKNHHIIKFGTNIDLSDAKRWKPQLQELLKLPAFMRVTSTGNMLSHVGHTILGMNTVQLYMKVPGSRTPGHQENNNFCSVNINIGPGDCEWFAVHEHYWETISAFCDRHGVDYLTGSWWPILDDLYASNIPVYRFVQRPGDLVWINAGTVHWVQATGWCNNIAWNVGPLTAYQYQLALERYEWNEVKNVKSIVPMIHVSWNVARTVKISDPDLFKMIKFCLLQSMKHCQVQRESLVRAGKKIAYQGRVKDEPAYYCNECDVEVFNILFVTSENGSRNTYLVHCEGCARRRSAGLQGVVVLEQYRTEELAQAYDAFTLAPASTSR

**Q.** What does the source list for `CCCCCCOc1c(OC)cc(NC(C)CCCN)c2nc(C(C)(C)C)ccc12` (stereo not given)?
**A.** IC50 (Plasmodium falciparum [1]): 0.022 µg/mL; IC50 (Plasmodium falciparum [2]): 0.02 µg/mL

**Q.** For `Cn1cc(-c2ccc3nnc(C(F)(F)c4ccc5ncccc5c4)n3n2)cn1` [JNJ-38877605], which IC50 [3] is on record?
**A.** The IC50 was 1.7 nM.

**Q.** With `Cc1cc(S(=O)(=O)c2ccccc2[N+](=O)[O-])c2ccccc2n1` as the molecule, how does the IC50 (MCF7) read?
**A.** The IC50 was 1380 nM.

**Q.** What does the source list for `Cc1c(Cl)ccc2cc(/C=C/C(=O)c3ccc(Br)s3)c(Cl)nc12`?
**A.** IC50 (Plasmodium falciparum [1]): < 50 nM; IC50 (Plasmodium falciparum [2]): < 50 nM

**Q.** With `CCCCCOc1c(OC)cc(NC(C)CCCN)c2nc(C(C)(C)C)ccc12` (stereo not given) as the molecule, how does the IC50 (Plasmodium falciparum [1]) read?
**A.** Its IC50 is 0.022 µg/mL.

**Q.** What about the IC50 (Plasmodium falciparum [2]) of the same molecule?
**A.** Its IC50 is 0.02 µg/mL.

**Q.** Which IC50 (Plasmodium falciparum [4]) does the source give for `O=C(NNC(=S)Nc1ccccc1)c1cc(-c2c(F)cccc2F)nc2ccc(C(F)(F)F)cc12` here?
**A.** The IC50 was 0.1 µg/mL (≈ 0.199 µM).

**Q.** Which IC50 (Plasmodium falciparum [5]) does the source give for `CC1(C)CC(NCc2cc3cccc(Cl)c3nc2N2CCCC2)CCO1` (stereo not given) here?
**A.** The IC50 was 24 nM.

**Q.** With `O=C(/C=C/C(=O)Nc1cccc(F)c1)NCCCCNc1cc(C(F)(F)F)nc2c(C(F)(F)F)cccc12` as the molecule, how does the IC50 (Plasmodium falciparum [6]) read?
**A.** Its IC50 is 2900 nM.

**Q.** With `COc1cc(-c2cnc3c(C(=O)O)ccc(C(=O)O)c3c2)ccc1F` as the molecule, how does the inhibition [7] read?
**A.** The inhibition was 0%.

**Q.** Which IC50 [3] does the source give for `[2H]c1ccc2cc(C(F)(F)c3nnc4ccc(-c5cnn(C)c5)nn34)ccc2n1` here?
**A.** Its IC50 is 2.6 nM.

**Q.** With `Cc1c(Cl)ccc2cc(/C=C/C(=O)c3ccc(Cl)cc3)c(Cl)nc12` as the molecule, how does the IC50 (Plasmodium falciparum [1]) read?
**A.** The IC50 was < 50 nM.

**Q.** What about the IC50 (Plasmodium falciparum [2]) of the same molecule?
**A.** The IC50 was < 50 nM.

**Q.** With `Cc1c(Cl)ccc2cc(/C=C/C(=O)c3cccc(Br)c3)c(Cl)nc12` as the molecule, how does the IC50 (Plasmodium falciparum [1]) read?
**A.** Its IC50 is < 50 nM.

**Q.** What about the IC50 (Plasmodium falciparum [2]) of the same molecule?
**A.** The IC50 was < 50 nM.

**Q.** For `C=C[C@@H]1CN2CC[C@@H]1C[C@@H]2[C@@H](O)c1ccnc2ccc(OC)cc12`, which IC50 (Plasmodium falciparum [5]) is on record?
**A.** The IC50 was 122 nM.

**Q.** Which IC50 (Plasmodium falciparum [8]) does the source give for `C#Cc1ccc(-c2cn(CCNc3ccnc4cc(Cl)ccc34)nn2)c(F)c1` here?
**A.** Its IC50 is 160 nM.

**Q.** What about the IC50 (Plasmodium falciparum [5]) of the same molecule?
**A.** The IC50 was 140 nM.

**Q.** For `OCc1cc(-c2cn(-c3ccc(Cl)cc3)nc2-c2ccccc2)nc2ccccc12`, which IC50 (Plasmodium falciparum [4]) is on record?
**A.** Its IC50 is 0.092 µg/mL (≈ 0.223 µM).

**Q.** With `COc1cc2nccc(Oc3ccc(NC(=O)C4(C(=O)Nc5c(F)cc(F)cc5F)CC4)cc3)c2cc1Oc1ccc(N)cn1` as the molecule, how does the IC50 [3] read?
**A.** Its IC50 is 19 nM.

**Q.** With `CC(C)c1ccc(-c2cncn2CCNc2ccnc3cc(Cl)ccc23)cc1` as the molecule, how does the IC50 (Plasmodium falciparum [6]) read?
**A.** The IC50 was 79 nM.

**Q.** What about the IC50 (Plasmodium falciparum [8]) of the same molecule?
**A.** Its IC50 is 290 nM.

**Q.** Which results are given for `Cc1ccsc1-c1cncn1CCNc1ccnc2cc(Cl)ccc12`?
**A.** IC50 (Plasmodium falciparum [6]): 79 nM; IC50 (Plasmodium falciparum [8]): 290 nM

**Q.** Which IC50 (Plasmodium falciparum [1]) does the source give for `O=C1c2ccc(N3CCN(CCO)CC3)cc2C(=O)N1CCCNc1ccnc2cc(Cl)ccc12` here?
**A.** Its IC50 is 6 nM.

**Q.** Which IC50 (Plasmodium falciparum [4]) does the source give for `O=C(NNC(=S)Nc1cccc(Cl)c1)c1cc(-c2ccccc2Cl)nc2ccccc12` here?
**A.** Its IC50 is < 0.3 µg/mL.

**Q.** With `OCCNCCNc1ccnc2cc(Cl)ccc12` as the molecule, how does the IC50 (Plasmodium falciparum [6]) read?
**A.** Its IC50 is 18.9 nM.

**Q.** And the IC50 (Plasmodium falciparum [1])?
**A.** The IC50 was 305 nM.

**Q.** For `COc1ccc(Nc2ccnc3cc(-c4ccc(S(=O)(=O)N5CCN(C)CC5)cc4)ccc23)cc1Cl`, which EC50 (Plasmodium falciparum [2]) is on record?
**A.** Its EC50 is 12 nM.

**Q.** Which IC50 [3] does the source give for `COc1cc2nccc(Oc3ccc(NC(=O)C4(C(=O)Nc5ccc(F)cc5)CC4)cc3)c2cc1OC(=O)c1ccc([N+](=O)[O-])cc1` here?
**A.** The IC50 was 19 nM.

**Q.** For `Cc1cc(C)c(S(=O)(=O)Oc2ccc(Cl)c3cccnc23)c(C)c1`, which IC50 (MCF7) is on record?
**A.** Its IC50 is 1380 nM.

**Q.** What does the source list for `CCCCCCCCOc1c(OC)cc(NC(C)CCCN)c2nc(C(C)(C)C)ccc12` (stereo not given)?
**A.** IC50 (Plasmodium falciparum [1]): 0.022 µg/mL; IC50 (Plasmodium falciparum [2]): 0.02 µg/mL

**Q.** With `O=C(/C=C/c1cc(N2CCOCC2)c2cc(O)ccc2n1)c1ccc(Cl)cc1` as the molecule, how does the Kd [9] read?
**A.** The Kd was 20100 nM.

**Q.** With `C=C[C@H]1CN2CC[C@H]1C[C@H]2[C@H](O)c1ccnc2ccc(OC)cc12` [QUININE] as the molecule, how does the IC50 (Plasmodium falciparum [5]) read?
**A.** Its IC50 is 22 nM.

**Q.** And the IC50 (Plasmodium falciparum [4])?
**A.** The IC50 was 0.26 µg/mL (≈ 0.801 µM).

**Q.** For `O=C(NC1CCCCC1)c1cc([N+](=O)[O-])c2cccnc2c1O`, which inhibition [10] is on record?
**A.** The inhibition was 19.4%.

**Q.** For `O=C(NCc1ccc(F)cc1)c1cc([N+](=O)[O-])c2cccnc2c1O`, which inhibition [10] is on record?
**A.** The inhibition was 19.4%.

**Q.** With `Cc1nc2ccccc2c(C)c1C(=O)NNC(=S)Nc1ccccc1` as the molecule, how does the IC50 (Plasmodium falciparum [4]) read?
**A.** Its IC50 is 0.02 µg/mL (≈ 0.0571 µM).

**Q.** With `CN(C)c1ccc(/C=C/c2cc(C(=O)O)c3cc(Br)ccc3n2)cc1` as the molecule, how does the IC50 (HepG2) read?
**A.** The IC50 was 7.7 µg/mL.

**Q.** What about the IC50 (HCT-116) of the same molecule?
**A.** The IC50 was 7.7 µg/mL (≈ 19.4 µM).

**Q.** For `CC(C)(C)c1cncn1CCNc1ccnc2cc(Cl)ccc12`, which IC50 (Plasmodium falciparum [6]) is on record?
**A.** Its IC50 is 79 nM.

**Q.** What about the IC50 (Plasmodium falciparum [8]) of the same molecule?
**A.** The IC50 was 290 nM.

**Q.** With `CC(O)(CS(=O)(=O)c1ccc(F)cc1)C(=O)Nc1ccc(C#N)c(C(F)(F)F)c1` (stereo not given) [BICALUTAMIDE] as the molecule, how does the IC50 (PC-3) read?
**A.** Its IC50 is 1300 nM.

**Q.** Which IC50 (Plasmodium falciparum [4]) does the source give for `Cc1ccc(NC(=S)NNC(=O)c2c(C)nc3ccccc3c2C)cc1` here?
**A.** The IC50 was 0.02 µg/mL (≈ 0.0549 µM).

**Q.** What does the source list for `C#Cc1ccc(-c2cn(CCNc3ccnc4cc(Cl)ccc34)nn2)cc1F`?
**A.** IC50 (Plasmodium falciparum [8]): 160 nM; IC50 (Plasmodium falciparum [5]): 140 nM

**Q.** What does the source list for `Cc1ccc2nc(/C=C/c3ccc(N(C)C)cc3)cc(C(=O)O)c2c1`?
**A.** IC50 (HepG2): 7.7 µg/mL; IC50 (HCT-116): 7.7 µg/mL (≈ 23.2 µM)

**Q.** With `O=C1c2ccc(N3CCOCC3)cc2C(=O)N1CCCCCCNc1ccnc2cc(Cl)ccc12` as the molecule, how does the IC50 (Plasmodium falciparum [1]) read?
**A.** Its IC50 is 6 nM.

**Q.** For `O=C(/C=C/c1cc(N2CCOCC2)c2cc([N+](=O)[O-])ccc2n1)c1ccc(O)cc1`, which Kd [9] is on record?
**A.** The Kd was 4600 nM.

**Q.** Which IC50 (Plasmodium falciparum [6]) does the source give for `CN(C)CCNCc1ccc(-c2cc(-c3ccc(CNCCN(C)C)cc3)c3ccccc3n2)cc1` here?
**A.** The IC50 was 32 nM.

**Q.** What about the IC50 (Plasmodium falciparum [1]) of the same molecule?
**A.** The IC50 was 340 nM.

**Q.** And the IC50 (HepG2)?
**A.** Its IC50 is 3100 nM.

**Q.** For `Cc1ccc2nc(-c3cn(-c4ccc(Cl)cc4)nc3-c3ccccc3)cc(C(=O)NCCCN(C)C)c2c1`, which IC50 (Plasmodium falciparum [4]) is on record?
**A.** Its IC50 is 0.0879 µg/mL (≈ 0.168 µM).

**Q.** Which results are given for `Cc1cccc2cc(CNC3CCOC(C)(C)C3)c(N3CCCC3)nc12` (stereo not given)?
**A.** IC50 (Plasmodium falciparum [8]): 173 nM; IC50 (Plasmodium falciparum [5]): 22 nM

**Q.** Which IC50 (Plasmodium falciparum [1]) does the source give for `Cc1c(Cl)ccc2cc(/C=C/C(=O)c3ccccc3Br)c(Cl)nc12` here?
**A.** The IC50 was < 50 nM.

**Q.** What about the IC50 (Plasmodium falciparum [2]) of the same molecule?
**A.** Its IC50 is < 50 nM.

**Q.** For `Clc1ccc2c(NCCn3cncc3C3CCCC3)ccnc2c1`, which IC50 (Plasmodium falciparum [6]) is on record?
**A.** Its IC50 is 79 nM.

**Q.** And the IC50 (Plasmodium falciparum [8])?
**A.** The IC50 was 290 nM.

**Q.** Which results are given for `FC(F)(F)c1ccc(-c2cncn2CCNc2ccnc3cc(Cl)ccc23)cc1`?
**A.** IC50 (Plasmodium falciparum [6]): 79 nM; IC50 (Plasmodium falciparum [8]): 290 nM
